Measurements published in US20060040312A1 (priority 1999, published 2006).

How the values were obtained:
[1] = test system: cardiac myocytes; format: cell-based, rat
[2] = test system: histamine-contracted, isolated Guinea pig tracheal segments
[3] = test system: primary cultures of cortex
[4] = molecular target: Shaker H4 potassium channel (Drosophila melanogaster, UniProt P08510); conditions: cited from earlier work
[5] = molecular target: F425G Shaker mutation (Drosophila melanogaster, UniProt P08510, F425G); conditions: cited from earlier work
F425G Shaker mutation, sequence (P08510 whole entry F425G): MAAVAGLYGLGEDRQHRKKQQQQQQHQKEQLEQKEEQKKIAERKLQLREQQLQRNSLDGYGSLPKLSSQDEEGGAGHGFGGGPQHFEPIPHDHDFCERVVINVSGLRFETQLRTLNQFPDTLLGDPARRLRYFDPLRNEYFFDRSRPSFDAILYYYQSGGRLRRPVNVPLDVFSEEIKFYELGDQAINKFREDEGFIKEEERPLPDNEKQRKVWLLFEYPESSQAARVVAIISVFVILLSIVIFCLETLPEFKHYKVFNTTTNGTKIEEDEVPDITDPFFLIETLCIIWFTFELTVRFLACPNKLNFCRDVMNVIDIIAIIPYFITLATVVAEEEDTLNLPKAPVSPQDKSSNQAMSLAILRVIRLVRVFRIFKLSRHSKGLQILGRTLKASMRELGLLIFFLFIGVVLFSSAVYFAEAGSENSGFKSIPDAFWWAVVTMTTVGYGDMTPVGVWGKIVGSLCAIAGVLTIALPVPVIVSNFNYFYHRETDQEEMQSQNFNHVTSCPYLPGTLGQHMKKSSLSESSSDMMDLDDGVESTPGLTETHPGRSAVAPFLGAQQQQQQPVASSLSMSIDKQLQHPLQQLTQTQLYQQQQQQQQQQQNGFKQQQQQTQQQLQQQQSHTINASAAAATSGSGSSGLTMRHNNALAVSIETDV

[6] = test system: primary cultures of cortex; format: cell-based, rat
[7] = test system: cortical cells
[8] = test system: primary cortical cultures

Shaker H4 potassium channel, sequence (P08510 whole entry): as the sequence (P08510 whole entry F425G) above, with G425F counted along it

## COc1ccc(Cl)cc1C(=O)NCCc1ccc(S(=O)(=O)NC(=O)NC2CCCCC2)cc1 [Glibenclamide]
[1]
  sensitivity of κ-PVIIA-evoked currents to KATP antagonist: sensitive
[2]
  effect of KATP channel antagonist on the κ-PVIIA response: reduce effects of κ-PVIIA
[3]
  effect of KATP antagonist on the κ-PVIIA induced hyperpolarization: significant reductions

## charybdotoxin [reference compound]
[4]
  block / inhibition of the Shaker channel: inhibit
[5]
  effect of F425G Shaker mutation on toxin affinity / sensitivity: increases charybdotoxin affinity by three orders of magnitude

## Iberiotoxin (QFTDVDCSVSKECWSVCKDLFGVDRGKCMGKKCRCYQ; UniProt P24663 1-37, looked up) [IBTX]
[3]
  effect of K+ channel antagonist on the hyperpolarization seen with 100 nM κ-PVIIA: without any detectable effect

## Nc1ccncc1 [4-AP, 4-aminopyridine]
[3]
  effect of K+ channel antagonist on the hyperpolarization seen with 100 nM κ-PVIIA: without any detectable effect

## CCCCNC(=O)NS(=O)(=O)c1ccc(C)cc1 [Tolbutamide]
[6]
  sensitivity of κ-PVIIA-evoked currents to KATP antagonist: sensitive
[2]
  effect of KATP channel antagonist on the κ-PVIIA response: reduce effects of κ-PVIIA
[3]
  effect of KATP antagonist on the κ-PVIIA induced hyperpolarization: significant reductions
  inhibition of the κ-PVIIA (100 nM) response: inhibition
[7]
  effect of KATP antagonist on κ-PVIIA protection against glutamate cytotoxicity: blocked

## Triton [reference compound]
[8]
  increase in fluorescence (Enzchek protease-sensitive dye): ~14%
